Results on 2 compounds are retold here after PMC10097024, “Cytotoxic and Antibacterial Prenylated Acylphloroglucinols from Hypericum olympicum L” (Plants, 2023).

For orientation: IC50 means the concentration that gives 50% inhibition.

One assay concerns K-562 cells. The settings on record: human leukemia cell line K-562, dissolved in DMSO; cited from earlier work.
The subject of the next assay is SKW-3. Details: method as in PMID 26411018. To be noted: human leukemia cell line SKW-3, dissolved in DMSO; cited from earlier work.
The test system of another assay is BV-173. More on the design: method as in PMID 26411018. To be noted: human leukemia cell line BV-173, dissolved in DMSO; cited from earlier work.
The test system of the next assay is procaspase 9. Put plainly: Western blot, procaspase 9. The settings on record: MDA-MB-231 and HL60/DOX. The format is cell-based, human. The procedure:
Next, the samples were lysed on ice with a buffer containing 100 mM Tris–HCl at pH 8.0, 4% SDS, 20% glycerol, 1% Na3VO4, 200 mM dithiothreitol (DTT) (Sigma-Aldrich, St. Louis, MO, USA) and protease inhibitor (Roche, Basel, Switzerland). Then the cell lysate was boiled for 15 min and centrifuged at 13,000 rpm for 10 min at 4 °C. Before DTT addition, aliquot samples of 10 μL were taken from the lysates. Their protein concentrations were determined using a BCA protein assay kit (ThermoFisher Scientific, Waltham, MA, USA) after dilution 5× with H2O. Subsequently, the samples were subjected to denaturing SDS-PAGE electrophoresis and then transferred to PVDF membrane (Santa Cruz Biotechnology, USA). After this, the blots were fixed with blocking solution (5% w/v nonfat dried milk powder, dissolved in TBS) and incubated with specific primary antibodies: mouse procaspase-9 (sc-17784), mouse Bcl-2 (C-2, sc-7382) and mouse β-actin (sc-8432). The incubation was either overnight at 4 °C or for 150 min at room temperature. After washing, the membranes were incubated for 45 min with horseradish peroxidase conjugated secondary goat anti-mouse antibody (sc-2005) or mouse IgG kappa antibody (sc-516102) (Santa Cruz Biotechnology, Santa Cruz, CA, USA). […] This densitometry analysis of the blots was calculated by Quantity One software version 4.6.9 (Bio-Rad Laboratories, Hercules, CA, USA). […]
On the technique in general: Immunoblotting shows a protein as a band on a membrane.

For `CC(C)=CCC[C@]1(C)[C@@H](CC=C(C)C)C[C@]2(C)C(=O)C(CC=C(C)C)=C(O)[C@@]1(C(=O)C(C)C)C2=O` [Compound 3, hyperpolyphyllirin/hyperibine J], the IC50 with K-562 cells was 21.3 µM; in the assay on SKW-3, 5.3 µM; in the assay on BV-173 it was 5.7 µM.

As for `CC(C)=CCC[C@]1(C)[C@@H](CC=C(C)C)C[C@H]2C(=O)[C@]1(C(=O)C(C)C)C(=O)C(CC=C(C)C)=C2O` [Compound 5, (1S,5R,7S,8R)-4-hydroxy-1-isobutyryl-8-methyl-3,7-bis(3-methylbut-2-en-1-yl)-8-(4-methylpent-3-en-1-yl)bicyclo[3.3.1]non-3-ene-2,9-dione], in the assay on procaspase 9, the “degradation of the precursor caspase 9 (in words)” value was “not any observed decrease”.
